Columns and labels:
[1] = test system: MPTP-induced in vivo PD model; test: Pole test; set-up: species or system mice (C57BL/6j); conditions: MPTP mice, 2 hours
Method: In this study, all animal management and experimental protocols were performed in compliance with guidelines of the Institutional Animal Care and Use Committee of the Korea Institute of Science and Technology. 40 mice (C57BL/6j, male, 8 weeks old) were purchased from SLC Inc. (Shizuoka, Japan). After arrival, every four mice were hosed in each cage (30 cm×18.5 cm×13 cm) and allowed free access to feed and water. All mice were housed under the following constant conditions: lights on from 6:00 to 18:00, a temperature of 23° C.±1° C., and a humidity of 50%±10%. After 7 days of a habituation period, the mice were used in the experiments according to standard protocols. 40 mice were classified into five groups such that eight mice belonged to each group. After the habituation period, all mice were orally administered with a drug every day. […] Each mouse was administered with a single dose of saline/MPTP injection every day for 8 days. At 7 days after the final MPTP injection, all mice were sacrificed by cervical dislocation, and then the whole brain, SNpc, and striatum (ST) were excised for biochemical analysis. […] Each mouse was placed on the top of the pole with the head raised up, and a time taken for the mouse to turn and descend the pole was recorded up to 120 seconds with a stopwatch. […] An average time of three tests was calculated to evaluate motor function.

TH and α-synuclein = test: Western blot of TH and α-synuclein in ST and SN of MPTP-impaired mice; type: in vivo, mice (C57BL/6j); conditions: for α-synuclein level: vs MPTP-treated mice; for TH level: MPTP mice
Method: 40 mice were classified into five groups such that eight mice belonged to each group. After the habituation period, all mice were orally administered with a drug every day. While the mice of Groups 1 and 2 were administered with saline (p.o.), the mice of Groups 3, 4, and 5 were administered with 5 mg/kg ropinirole (p.o.), 5 mg/kg AKNS-2 (p.o.), and 15 mg/kg AKNS-2 (p.o.), respectively. From the 5th day therefrom, the mice of Group 1 were intraperitoneally administered with a saline at 1 hour after gavage feeding of saline, and the mice of Groups 2, 3, 4, and 5 were administered with 30 mg/kg MPTP (i.p.) at 1 hour after gavage feeding of saline, ropinirole, AKNS-2 (5 mg/kg), and AKNS-2 (15 mg/kg), respectively. Each mouse was administered with a single dose of saline/MPTP injection every day for 8 days. At 7 days after the final MPTP injection, all mice were sacrificed by cervical dislocation, and then the whole brain, SNpc, and striatum (ST) were excised for biochemical analysis.
On the 7th day after the last administration of MPTP, SNpc and ST of each mouse were carefully excised and stored at −80° C. until use. Thereafter, brain tissue of SNpc and ST was homogenized in a PRO-PREP™ lysis buffer (iNtRON, Gyeonggi, Korea) containing a phosphatase inhibitor cocktail set I (Sigma-Aldrich, Mo., USA). After shaking at 4° C. for 30 minutes, homogenates were centrifuged at 4° C. at 13000×g for 20 minutes, and a supernatant obtained therefrom was collected and added to a new 1.5 mL tube. A concentration of proteins contained in the supernatant was measured by the Bradford method. A part of the supernatant was mixed with the same volume of a loading buffer and denatured in a heater at 99° C. for 5 minutes for western blot analysis. The remaining supernatant was stored at −80° C. for subsequent tests for MAO-B activity and DA level using an ELISA kit.
Protein markers contained in lysates of the SH-SY5Y cells and brain tissue of the mice (SNpc and ST) were measured by western blot analysis. […] Then, proteins separated on the gel were transferred to a polyvinylidene fluoride (PVDF) membrane for 45 minutes using a Trans-Blot Turbo Transfer System (Bio-Rad, USA). The membrane was washed with tris-buffered saline with 0.1% Tween 20, TBST) for 5 minutes and then blocked by 5% skim milk dissolved in a TBST buffer. The membrane was further incubated with monoclonal primary antibodies derived from rabbits (anti-GAPDH, anti-AMPK, anti-p-AMPK, anti-ULK, anti-p-ULK555, anti-Erk, anti-p-Erk, anti-mTOR, anti-p-mTOR, anti-LC3B, anti-TH, and anti-α-synuclein antibodies). The primary antibodies were diluted in a blocking buffer at a ratio of 1:1000 and incubated overnight at 4° C. […] The intensity of the protein blots was quantified using Multi Gauge software (Fujifilm, Japan).

[2] = both ST and SN, 5 mg/kg and 15 mg/kg p.o.

SMILES	behavior performance in pole test ([1]; ropinirole (5 mg/kg p.o.))	α-synuclein level (TH and α-synuclein; ST and SN, 5 mg/kg p.o.)	TH level (TH and α-synuclein; both ST and SN, 5 mg/kg p.o.)	behavior performance in pole test ([1]; 5 mg/kg and 15 mg/kg p.o.)	α-synuclein level (TH and α-synuclein; [2])	TH level (TH and α-synuclein; [2])
CCCN(CCC)CCc1cccc2c1CC(=O)N2 [ropinirole, reference compound]	considerably restored	a significant decrease in the α-synuclein level	considerably reversed			
C[C@@H]1O[C@@H](O[C@@H]2[C@@H](O)[C@H](O[C@@H]3[C@@H](O[C@@H]4OC[C@@H](O)[C@H](O)[C@H]4O)[C@@H](O)[C@H](O[C@H]4[C@H](OC(=O)[C@]56CCC(C)(C)C[C@H]5C5=CC[C@@H]7[C@@]8(C)C[C@H](O)[C@H](O[C@@H]9O[C@H](CO)[C@@H](O)[C@H](O[C@@H]%10OC[C@@H](O)[C@H](O)[C@H]%10O)[C@H]9O)[C@@](C)(CO)[C@@H]8CC[C@@]7(C)[C@]5(C)C[C@H]6O)OC[C@H](O)[C@@H]4O)O[C@H]3C)OC[C@H]2O)[C@H](O)[C@H](O)[C@H]1O [Compound 1, 3-O-β-D-xylopyranosyl-(1→3)-β-D-glucopyranosylpolygalacic acid 28-O-α-L-rhamnopyranosyl-(1→3)-β-D-xylopyranosyl-(1→4)-[β-D-xylopyranosyl-(1→3)]-α-L-rhamnopyranosyl-(1→2)-α-L-arabinopyranosyl ester]				considerably restored	a significant decrease in the α-synuclein level	considerably reversed

Reference: US12234257B2, “Triterpene saponin derivative and use thereof” (KOREA INSTITUTE OF SCIENCE AND TECHNOLOGY, priority 2020, dated 2025)
